Measured values: PubChem BioAssay (NCI)
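Tested at 5 concentrations; 48 h exposure; 96-well plates; endpoints linearly interpolated, else capped at highest concentration. GI50 = concentration required for 50% inhibition of growth. TGI denotes the concentration required for complete inhibition of growth.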

What was measured:
Experiment in all cases: DTP human tumour cell line panel, 48 h
[1] = test system: CAKI-1 renal
[2] = test system: HCC-2998 colon
[3] = test system: HCT-116 colon
[4] = test system: HL-60(TB) leukemia
[5] = test system: HOP-92 NSCLC
[6] = test system: HT29 colon
[7] = test system: SF-539 CNS
[8] = test system: SK-MEL-2 melanoma
[9] = test system: SK-OV-3 ovarian
[10] = test system: NCI/ADR-RES ovarian

Compound	TGI [1] [µM]	TGI [2] [µM]	TGI [3] [µM]	TGI [4] [µM]	TGI [5] [µM]	TGI [6] [µM]	TGI [7] [µM]	TGI [8] [µM]	TGI [9] [µM]	GI50 [1] [µM]	GI50 [2] [µM]	GI50 [3] [µM]	GI50 [4] [µM]	GI50 [5] [µM]	GI50 [6] [µM]	GI50 [7] [µM]	GI50 [8] [nM]	TGI [10] [nM]
Cc1ccc(C(=O)O/N=C2/CCC/C2=C\c2ccccc2)cc1	> 100	> 100	> 100	> 100	> 100	> 100	> 100	> 100	> 100									
CC1=NOC(=O)/C1=C/c1ccccc1O	> 100	> 100	> 100	> 100	> 100	> 100	> 100	> 100	> 100									
Cc1cc(N(CCC#N)S(=O)(=O)c2ccccc2)ccc1/C=C1N=C(/C=C/c2ccccc2)OC\1=O	> 100	> 100	> 100	> 100		> 100	> 100	> 100	> 100									
C=CCC1([C@H](C)[C@@H](OC(C)=O)c2cc(OC)c(OC)c(OC)c2)C[C@@H](OC)CCC1=O (some centres undefined)	> 100		32.3	45	> 100	38	30.8	38.9	> 100									
CCCCCCCCCc1cc(=O)c2ccc(OCc3ccccc3)cc2o1	13.4	> 100	> 100	46.4	> 100	> 100	> 100	> 100	> 100									
CC1CCCCc2nc3c(c(=O)n21)CCCC3 (centres undefined)	> 100	> 100	> 100		> 100	> 100	> 100	> 100	> 100									
COc1ccccc1NC(=O)CC(=O)N1N=C(C)C(N=Nc2ccc(S(N)(=O)=O)cc2)C1=O (centres undefined)	> 100	> 100	> 100		> 100	> 100	> 100	> 100	> 100									
Cc1ccncc1.[O]=[Ge].[O]=[Ge].[O]=[Ge].[O]=[Ge].[O]=[Ge].[O]=[Ge][OH].[O]=[Ge][OH]	> 100	> 100	> 100	> 100	> 100	> 100	> 100	> 100		> 100	> 100	> 100	> 100	> 100	> 100	> 100	> 100000	
C=C1C(=O)O[C@H]2[C@H]1[C@H](OC(=O)/C(C)=C\C)CC(=C)[C@@H]1[C@H](O)[C@H]3O[C@@]3(C)[C@@]12O	> 100	> 100	> 100		> 100	> 100	> 100	> 100	> 100									
COc1cc(C2c3cc4c(cc3OC(N3CCCC3)C2C)OCO4)cc(OC)c1OC (centres undefined)	12	4.32	27.7		21.2	1.22	0.732	7.56	12.2									531
CN(C(=O)C12C3C4C5C3C1(C(=O)O)C5C42)C(C)(C)C (centres undefined)	> 100	> 100	> 100	32	> 100	> 100	> 100	> 100	> 100									
Nc1cc2cccc[n+]2c2cc(Cl)ccc12		37.7			69.6		83.2	18.4			16.8	30.2	16.3	22.7	37.4	14.6	66.4	
CCOC(=O)C1=C(C)N(Cc2ccccc2)C(C)=C(C(=O)OCC)C1c1ccccc1O	> 100	> 100	> 100	58.6	50.6	> 100	88.8	52.7	> 100									
CC(=O)NC(CCCNCc1ccccc1)C(=O)NCc1ccccc1 (centres undefined)	> 100	> 100	> 100		> 100	> 100	> 100	> 100	> 100									
COc1nc(NC2OCC(OC(C)=O)C(OC(C)=O)C2OC(C)=O)c(N=CC=Nc2c(NC3OCC(OC(C)=O)C(OC(C)=O)C3OC(C)=O)nc(OC)n(C)c2=O)c(=O)n1C (centres undefined)		> 100	> 100	> 100	> 100	> 100	> 100	> 100	> 100									
O=c1c2c([nH]c3cc4c(cc13)OCO4)-c1ccccc1CC2		> 100	> 100	> 100		> 100	> 100	> 100										
COc1ccccc1NC(=O)C1=C(C)NC(C)=C(C(=O)Nc2ccccc2OC)C1c1ccccc1F	> 100	> 100	> 100	> 100	> 100	> 100	> 100	> 100	> 100									
COc1ccc2c(c1)C(O)(C(F)(F)F)c1cc(C(=O)C(F)(F)F)c3ccccc3c1N2 (centres undefined)	26.8	24.3		43.2	29.6	20.3	31.3	25.2	31.6									
COC(=O)CCC1CCc2c(OC)ccc(O)c2C1=O (centres undefined)		> 100	> 100	> 100		> 100	> 100	> 100	> 100									
COc1ccc(-c2cc(=O)c3cc4c(cc3[nH]2)OCO4)c(OC)c1OC	> 100	> 100	> 100	> 100	> 100	> 100	> 100	> 100	> 100									
CC(C)(C)OC(=O)C#CC[C@H]1CCCC1/C=C/C(O)=C1/C(=O)NC(CCCNC(=O)OC(C)(C)C)C1=O (some centres undefined)	> 100	> 100	23.9	73.7	59	> 100	83.1	34.4	> 100									
COC(=O)c1csnn1		> 100	> 100	> 100		> 100	> 100		> 100									
COC(=O)CCC(NC(=S)N/N=C(\C)c1nccs1)C(=O)OC (centres undefined)		> 100	> 100	47.5	> 100	> 100	> 100	> 100	> 100									
